Measured values taken from patent publication US12559529B2, “NPY2 receptor agonists” (Boehringer Ingelheim International GmbH, priority 2019, dated 2026).

Target: T1, Human Neuropeptide Y2 Receptor (Homo sapiens, UniProt P49146)
T1 construct: purchased CHEMICON HTS066M
T1 sequence (P49146 1-381): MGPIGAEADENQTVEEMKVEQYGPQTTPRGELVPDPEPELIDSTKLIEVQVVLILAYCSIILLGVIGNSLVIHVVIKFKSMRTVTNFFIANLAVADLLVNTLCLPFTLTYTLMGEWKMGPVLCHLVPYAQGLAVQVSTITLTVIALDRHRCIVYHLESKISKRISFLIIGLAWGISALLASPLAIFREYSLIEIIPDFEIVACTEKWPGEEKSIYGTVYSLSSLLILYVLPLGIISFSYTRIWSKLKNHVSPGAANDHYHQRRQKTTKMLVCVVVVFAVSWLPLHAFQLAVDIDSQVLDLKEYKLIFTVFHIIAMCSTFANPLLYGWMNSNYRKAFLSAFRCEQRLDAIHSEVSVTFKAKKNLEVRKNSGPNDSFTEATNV
Experiment: Radioligand binding competition assay (RLB)
Settings: Table 3; human 125I-PYY (1-36) 0.02 nM, Y2 receptor membranes; read-out: Ki
Method in brief: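 Membranes from cells expressing human Y2 receptor (0.5 μg protein/well) were incubated with radioligand and serially diluted peptides in 50 mM HEPES, 5 mM MgCl2, 1 mM CaCl2, 0.2% ovalbumin, pH 7.4, for 2 h at room temperature with shaking. Bound radioactivity was collected by filtration and counted; IC50 from sigmoidal nonlinear regression.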

| Compound | Ki [nM] |
| --- | --- |
| CC(C)CC(=O)N[C@@H](C)C(=O)N1CCC[C@H]1C(=O)N[C@@H](CCC(=O)O)C(=O)N[C@@H](CCCCNC(=O)COCCOCCNC(=O)COCCOCCNC(=O)CC[C@H](NC(=O)CCCCCCCCCCCCCCCCC(=O)O)C(=O)O)C(=O)N1CCC[C@H]1C(=O)N[C@@H](CCC(=O)O)C(=O)N[C@@H](CCC(=O)O)C(=O)N[C@@H](CC(=O)O)C(=O)N[C@@H](C)C(=O)N[C@@H](CO)C(=O)N[C@@H](CCC(=O)O)C(=O)N[C@@H](C)C(=O)N[C@@H](CCC(=O)O)C(=O)N[C@@H](CC(C)C)C(=O)N[C@@H](CCC(N)=O)C(=O)N[C@@H](CCCNC(=N)N)C(=O)N[C@@H](Cc1ccc(O)cc1)C(=O)N[C@@H](Cc1ccc(O)cc1)C(=O)N[C@H](C(=O)N[C@@H](CO)C(=O)N[C@@H](CC(C)C)C(=O)N[C@@H](CCCNC(=N)N)C(=O)N[C@@H](Cc1c[nH]cn1)C(=O)N[C@@H](Cc1ccc(O)cc1)C(=O)N[C@@H](Cc1ccc(O)cc1)C(=O)N[C@@H](CC(N)=O)C(=O)N[C@@H](Cc1c[nH]c2ccccc12)C(=O)N[C@@H](CC(C)C)C(=O)N[C@H](C(=O)N[C@@H](CCCNC(=N)N)C(=O)N[C@@H](CCC(N)=O)C(=O)N[C@@H](CCCNC(=N)N)C(=O)N[C@@H](Cc1ccc(O)cc1)C(N)=O)[C@@H](C)O)C(C)C [Compound 189, N{alpha-4}-(3-methylbutanoyl)-N{epsilon-7}-[2-(2-{2-[2-(2-{2-[(4S)-4-carboxy-4-(17-carboxyheptadecanamido)butanamido]ethoxy}ethoxy)acetamido]ethoxy}ethoxy)acetamido]-[4A,7K,9E,14E,15A,18Q,22V,28Y,30W,31L]hPYY (4-36)] | 2.08 |
| CC[C@H](C)[C@H](NC(=O)[C@H](Cc1ccc(O)cc1)NC(=O)[C@H](Cc1ccc(O)cc1)NC(=O)[C@H](CCCNC(=N)N)NC(=O)[C@H](CCC(N)=O)NC(=O)[C@H](CC(C)C)NC(=O)[C@H](CCC(=O)O)NC(=O)[C@H](CCC(=O)O)NC(=O)[C@@H]1CCCN1C(=O)[C@H](CO)NC(=O)[C@H](C)NC(=O)[C@H](CC(=O)O)NC(=O)[C@H](CCC(=O)O)NC(=O)[C@H](CCC(=O)O)NC(=O)[C@@H]1CCCN1C(=O)[C@H](CCCCNC(=O)COCCOCCNC(=O)COCCOCCNC(=O)CC[C@H](NC(=O)CCCCCCCCCCCCCCCCC(=O)O)C(=O)O)NC(=O)[C@H](CCC(=O)O)NC(=O)[C@@H]1CCCN1C(=O)[C@H](C)NC(=O)CC(C)C)C(=O)N[C@@H](CO)C(=O)N[C@@H](CC(C)C)C(=O)N[C@@H](CCCNC(=N)N)C(=O)N[C@@H](Cc1c[nH]cn1)C(=O)N[C@@H](Cc1ccc(O)cc1)C(=O)N[C@@H](Cc1ccc(O)cc1)C(=O)N[C@@H](CC(N)=O)C(=O)N[C@@H](Cc1c[nH]c2ccccc12)C(=O)N[C@@H](CC(C)C)C(=O)N[C@H](C(=O)N[C@@H](CCCNC(=N)N)C(=O)N[C@@H](CCC(N)=O)C(=O)N[C@@H](CCCNC(=N)N)C(=O)N[C@@H](Cc1ccc(O)cc1)C(N)=O)[C@@H](C)O [Compound 191, N{alpha-4}-(3-methylbutanoyl)-N{epsilon-7}-[2-(2-{2-[2-(2-{2-[(4S)-4-carboxy-4-(17-carboxyheptadecanamido)butanamido]ethoxy}ethoxy)acetamido]ethoxy}ethoxy)acetamido]-[4A,7K,9E,18Q,22I,28Y,30W,31L]hPYY (4-36)] | 1.7 |
